Assay results from ChEMBL document CHEMBL2057203, “Synthesis and evaluation of novel F-18 labeled 4-aminoquinazoline derivatives: potential PET imaging agents for tumor detection” (Bioorg Med Chem Lett, 2012).

Key:
[1] = n-octanol-PBS partition coefficient, logP of the compound; assay type: physicochemical
Plasma = assay: Metabolic stability in mouse plasma after 2 hrs by radio-HPLC analysis; assay type: ADME, cell-free
[2] = Chemical stability in PBS after 2 hrs by radio-HPLC analysis at room temperature; assay type: physicochemical; conditions: buffer
[3] = Chemical stability in PBS after 2 hrs by radio-HPLC analysis at 60 degC; assay type: physicochemical; conditions: buffer
Heart [4] = assay: Biodistribution in S180 tumor-bearing mouse heart at 8 to 10 uCi, iv after 5 mins by gamma counting; assay type: ADME, organism-based; conditions: in vivo
Liver [5] = assay: Biodistribution in S180 tumor-bearing mouse liver at 8 to 10 uCi, iv after 5 mins by gamma counting; assay type: ADME, organism-based; conditions: in vivo
Spleen [6] = assay: Biodistribution in S180 tumor-bearing mouse spleen at 8 to 10 uCi, iv after 5 mins by gamma counting; assay type: ADME, organism-based; conditions: in vivo
Lung [7] = assay: Biodistribution in S180 tumor-bearing mouse lungs at 8 to 10 uCi, iv after 5 mins by gamma counting; assay type: ADME, organism-based; conditions: in vivo
Kidney [8] = assay: Biodistribution in S180 tumor-bearing mouse kidneys at 8 to 10 uCi, iv after 5 mins by gamma counting; assay type: ADME, organism-based; conditions: in vivo
Stomach [9] = assay: Biodistribution in S180 tumor-bearing mouse stomach at 8 to 10 uCi, iv after 5 mins by gamma counting; assay type: ADME, organism-based; conditions: in vivo
Muscle tissue [10] = assay: Biodistribution in S180 tumor-bearing mouse muscle at 8 to 10 uCi, iv after 5 mins by gamma counting; assay type: ADME, organism-based; conditions: in vivo
Brain [11] = assay: Biodistribution in S180 tumor-bearing mouse brain at 8 to 10 uCi, iv after 5 mins by gamma counting; assay type: ADME, organism-based; conditions: in vivo
Mus musculus [12] = assay: Biodistribution in S180 cells xenografted in mouse tumor at 8 to 10 uCi, iv after 5 mins by gamma counting; assay type: ADME, organism-based, Neoplasm, CCRF S-180; conditions: in vivo
Blood [13] = assay: Biodistribution in S180 tumor-bearing mouse blood at 8 to 10 uCi, iv after 5 mins by gamma counting; assay type: ADME, organism-based; conditions: in vivo
Nucleic Acid [14] = assay: Ratio of drug level in tumor to muscle in S180 tumor-bearing mouse at 8 to 10 uCi, iv at 5 mins by gamma counting; assay type: ADME, organism-based; conditions: in vivo
Nucleic Acid [15] = assay: Ratio of drug level in tumor to blood in S180 tumor-bearing mouse at 8 to 10 uCi, iv at 5 mins by gamma counting; assay type: ADME, organism-based; conditions: tumour
Nucleic Acid [16] = assay: Ratio of drug level in tumor to brain in S180 tumor-bearing mouse at 8 to 10 uCi, iv at 5 mins by gamma counting; assay type: ADME, organism-based; conditions: in vivo
Heart [17] = assay: Biodistribution in S180 tumor-bearing mouse heart at 8 to 10 uCi, iv after 30 mins by gamma counting; assay type: ADME, organism-based; conditions: in vivo, 0.5 h
Liver [18] = assay: Biodistribution in S180 tumor-bearing mouse liver at 8 to 10 uCi, iv after 30 mins by gamma counting; assay type: ADME, organism-based; conditions: in vivo, 0.5 h
Spleen [19] = assay: Biodistribution in S180 tumor-bearing mouse spleen at 8 to 10 uCi, iv after 30 mins by gamma counting; assay type: ADME, organism-based; conditions: in vivo, 0.5 h
Lung [20] = assay: Biodistribution in S180 tumor-bearing mouse lung at 8 to 10 uCi, iv after 30 mins by gamma counting; assay type: ADME, organism-based; conditions: in vivo, 0.5 h
Kidney [21] = assay: Biodistribution in S180 tumor-bearing mouse kidney at 8 to 10 uCi, iv after 30 mins by gamma counting; assay type: ADME, organism-based; conditions: in vivo, 0.5 h
Stomach [22] = assay: Biodistribution in S180 tumor-bearing mouse stomach at 8 to 10 uCi, iv after 30 mins by gamma counting; assay type: ADME, organism-based; conditions: in vivo, 0.5 h
Muscle tissue [23] = assay: Biodistribution in S180 tumor-bearing mouse muscle at 8 to 10 uCi, iv after 30 mins by gamma counting; assay type: ADME, organism-based; conditions: in vivo, 0.5 h
Brain [24] = assay: Biodistribution in S180 tumor-bearing mouse brain at 8 to 10 uCi, iv after 30 mins by gamma counting; assay type: ADME, organism-based; conditions: in vivo, 0.5 h
Mus musculus [25] = assay: Biodistribution in S180 cells xenografted in mouse tumor at 8 to 10 uCi, iv after 30 mins by gamma counting; assay type: ADME, organism-based, Neoplasm, CCRF S-180; conditions: in vivo, 0.5 h
Blood [26] = assay: Biodistribution in S180 tumor-bearing mouse blood at 8 to 10 uCi, iv after 30 mins by gamma counting; assay type: ADME, organism-based; conditions: in vivo, 0.5 h
Nucleic Acid [27] = assay: Ratio of drug level in tumor to muscle in S180 tumor-bearing mouse at 8 to 10 uCi, iv at 30 mins by gamma counting; assay type: ADME, organism-based; conditions: in vivo, 0.5 h
Nucleic Acid [28] = assay: Ratio of drug level in tumor to blood in S180 tumor-bearing mouse at 8 to 10 uCi, iv at 30 mins by gamma counting; assay type: ADME, organism-based; conditions: tumour, 0.5 h
Nucleic Acid [29] = assay: Ratio of drug level in tumor to brain in S180 tumor-bearing mouse at 8 to 10 uCi, iv at 30 mins by gamma counting; assay type: ADME, organism-based; conditions: in vivo, 0.5 h
Heart [30] = assay: Biodistribution in S180 tumor-bearing mouse heart at 8 to 10 uCi, iv after 60 mins by gamma counting; assay type: ADME, organism-based; conditions: in vivo, 1 h
Liver [31] = assay: Biodistribution in S180 tumor-bearing mouse liver at 8 to 10 uCi, iv after 60 mins by gamma counting; assay type: ADME, organism-based; conditions: in vivo, 1 h
Spleen [32] = assay: Biodistribution in S180 tumor-bearing mouse spleen at 8 to 10 uCi, iv after 60 mins by gamma counting; assay type: ADME, organism-based; conditions: in vivo, 1 h
Lung [33] = assay: Biodistribution in S180 tumor-bearing mouse lung at 8 to 10 uCi, iv after 60 mins by gamma counting; assay type: ADME, organism-based; conditions: in vivo, 1 h
Kidney [34] = assay: Biodistribution in S180 tumor-bearing mouse kidney at 8 to 10 uCi, iv after 60 mins by gamma counting; assay type: ADME, organism-based; conditions: in vivo, 1 h
Stomach [35] = assay: Biodistribution in S180 tumor-bearing mouse stomach at 8 to 10 uCi, iv after 60 mins by gamma counting; assay type: ADME, organism-based; conditions: in vivo, 1 h
Muscle tissue [36] = assay: Biodistribution in S180 tumor-bearing mouse muscle at 8 to 10 uCi, iv after 60 mins by gamma counting; assay type: ADME, organism-based; conditions: in vivo, 1 h
Brain [37] = assay: Biodistribution in S180 tumor-bearing mouse brain at 8 to 10 uCi, iv after 60 mins by gamma counting; assay type: ADME, organism-based; conditions: in vivo, 1 h
Mus musculus [38] = assay: Biodistribution in S180 cells xenografted in mouse tumor at 8 to 10 uCi, iv after 60 mins by gamma counting; assay type: ADME, organism-based, Neoplasm, CCRF S-180; conditions: in vivo, 1 h
Blood [39] = assay: Biodistribution in S180 tumor-bearing mouse blood at 8 to 10 uCi, iv after 60 mins by gamma counting; assay type: ADME, organism-based; conditions: in vivo, 1 h
Nucleic Acid [40] = assay: Ratio of drug level in tumor to muscle in S180 tumor-bearing mouse at 8 to 10 uCi, iv at 60 mins by gamma counting; assay type: ADME, organism-based; conditions: in vivo, 1 h
Nucleic Acid [41] = assay: Ratio of drug level in tumor to blood in S180 tumor-bearing mouse at 8 to 10 uCi, iv at 60 mins by gamma counting; assay type: ADME, organism-based; conditions: tumour, 1 h
Nucleic Acid [42] = assay: Ratio of drug level in tumor to brain in S180 tumor-bearing mouse at 8 to 10 uCi, iv at 60 mins by gamma counting; assay type: ADME, organism-based; conditions: in vivo, 1 h
Heart [43] = assay: Biodistribution in S180 tumor-bearing mouse heart at 8 to 10 uCi, iv after 120 mins by gamma counting; assay type: ADME, organism-based; conditions: in vivo, 2 h
Liver [44] = assay: Biodistribution in S180 tumor-bearing mouse liver at 8 to 10 uCi, iv after 120 mins by gamma counting; assay type: ADME, organism-based; conditions: in vivo, 2 h
Spleen [45] = assay: Biodistribution in S180 tumor-bearing mouse spleen at 8 to 10 uCi, iv after 120 mins by gamma counting; assay type: ADME, organism-based; conditions: in vivo, 2 h
Lung [46] = assay: Biodistribution in S180 tumor-bearing mouse lung at 8 to 10 uCi, iv after 120 mins by gamma counting; assay type: ADME, organism-based; conditions: in vivo, 2 h
Kidney [47] = assay: Biodistribution in S180 tumor-bearing mouse kidney at 8 to 10 uCi, iv after 120 mins by gamma counting; assay type: ADME, organism-based; conditions: in vivo, 2 h
Stomach [48] = assay: Biodistribution in S180 tumor-bearing mouse stomach at 8 to 10 uCi, iv after 120 mins by gamma counting; assay type: ADME, organism-based; conditions: in vivo, 2 h
Muscle tissue [49] = assay: Biodistribution in S180 tumor-bearing mouse muscle at 8 to 10 uCi, iv after 120 mins by gamma counting; assay type: ADME, organism-based; conditions: in vivo, 2 h
Brain [50] = assay: Biodistribution in S180 tumor-bearing mouse brain at 8 to 10 uCi, iv after 120 mins by gamma counting; assay type: ADME, organism-based; conditions: in vivo, 2 h
Mus musculus [51] = assay: Biodistribution in S180 cells xenografted in mouse tumor at 8 to 10 uCi, iv after 120 mins by gamma counting; assay type: ADME, organism-based, Neoplasm, CCRF S-180; conditions: in vivo, 2 h
Blood [52] = assay: Biodistribution in S180 tumor-bearing mouse blood at 8 to 10 uCi, iv after 120 mins by gamma counting; assay type: ADME, organism-based; conditions: in vivo, 2 h
Nucleic Acid [53] = assay: Ratio of drug level in tumor to muscle in S180 tumor-bearing mouse at 8 to 10 uCi, iv at 120 mins by gamma counting; assay type: ADME, organism-based; conditions: in vivo, 2 h
Nucleic Acid [54] = assay: Ratio of drug level in tumor to blood in S180 tumor-bearing mouse at 8 to 10 uCi, iv at 120 mins by gamma counting; assay type: ADME, organism-based; conditions: tumour, 2 h
Nucleic Acid [55] = assay: Ratio of drug level in tumor to brain in S180 tumor-bearing mouse at 8 to 10 uCi, iv at 120 mins by gamma counting; assay type: ADME, organism-based; conditions: in vivo, 2 h
Blood [56] = assay: Clearance in S180 tumor-bearing mouse blood at 8 to 10 uCi, iv at 120 mins; assay type: ADME, organism-based; conditions: in vivo, 2 h

C#Cc1cccc(Nc2ncnc3cc(OC)c(OCC[18F])cc23)c1
logP [1]: 1.64
Stability (Plasma): Stable
Stability [2]: Stable
Stability [3]: Stable
Drug uptake (Heart [4]): 8.68 % ID/g
Drug uptake (Liver [5]): 8.75 % ID/g
Drug uptake (Spleen [6]): 0.98 % ID/g
Drug uptake (Lung [7]): 3.6 % ID/g
Drug uptake (Kidney [8]): 6.35 % ID/g
Drug uptake (Stomach [9]): 8.56 % ID/g
Drug uptake (Muscle tissue [10]): 0.74 % ID/g
Drug uptake (Brain [11]): 5.51 % ID/g
Drug uptake (Mus musculus [12]): 1.4 % ID/g
Drug uptake (Blood [13]): 7.56 % ID/g
Ratio (Nucleic Acid [14]): 1.89
Ratio (Nucleic Acid [15]): 0.19
Ratio (Nucleic Acid [16]): 0.25
Drug uptake (Heart [17]): 2.85 % ID/g
Drug uptake (Liver [18]): 7.63 % ID/g
Drug uptake (Spleen [19]): 1.93 % ID/g
Drug uptake (Lung [20]): 2.99 % ID/g
Drug uptake (Kidney [21]): 4.16 % ID/g
Drug uptake (Stomach [22]): 5.94 % ID/g
Drug uptake (Muscle tissue [23]): 1.74 % ID/g
Drug uptake (Brain [24]): 2.59 % ID/g
Drug uptake (Mus musculus [25]): 3.32 % ID/g
Drug uptake (Blood [26]): 3.06 % ID/g
Ratio (Nucleic Acid [27]): 1.91
Ratio (Nucleic Acid [28]): 1.08
Ratio (Nucleic Acid [29]): 1.28
Drug uptake (Heart [30]): 1.99 % ID/g
Drug uptake (Liver [31]): 4.07 % ID/g
Drug uptake (Spleen [32]): 0.77 % ID/g
Drug uptake (Lung [33]): 1.88 % ID/g
Drug uptake (Kidney [34]): 2.53 % ID/g
Drug uptake (Stomach [35]): 4.14 % ID/g
Drug uptake (Muscle tissue [36]): 0.82 % ID/g
Drug uptake (Brain [37]): 0.3 % ID/g
Drug uptake (Mus musculus [38]): 2.98 % ID/g
Drug uptake (Blood [39]): 1.19 % ID/g
Ratio (Nucleic Acid [40]): 3.63
Ratio (Nucleic Acid [41]): 2.5
Ratio (Nucleic Acid [42]): 9.93
Drug uptake (Heart [43]): 1.03 % ID/g
Drug uptake (Liver [44]): 3.4 % ID/g
Drug uptake (Spleen [45]): 1.04 % ID/g
Drug uptake (Lung [46]): 1.62 % ID/g
Drug uptake (Kidney [47]): 1.27 % ID/g
Drug uptake (Stomach [48]): 1.07 % ID/g
Drug uptake (Muscle tissue [49]): 1.36 % ID/g
Drug uptake (Brain [50]): 1.5 % ID/g
Drug uptake (Mus musculus [51]): 1.81 % ID/g
Drug uptake (Blood [52]): 0.77 % ID/g
Ratio (Nucleic Acid [53]): 1.33
Ratio (Nucleic Acid [54]): 2.35
Ratio (Nucleic Acid [55]): 1.21
CL (Blood [56]): 90%
